Here are results for one molecule from patent publication US9889144B2, “Abiraterone acetate formulation and methods of use” (iCeutica Inc., priority 2013, dated 2018).

Data set [1] in a line: Abiraterone acetate stability with and without milling, total impurities by HPLC. In kind it is physicochemical. Conditions: 80° C., 4 hrs. The source says:
The impurity growth in the DPI and tablets containing fine particle abiraterone acetate is due to oxidative degradation of abiraterone acetate. […] The faster degradation in tablets containing fine particle abiraterone acetate could arise from a number of sources, including, but not limited to: greater surface area of the API, higher proportion of excipient relative to the API, and differences in excipients.

For data set [2] the following is noted: cited from earlier work.

For `CC(=O)O[C@H]1CC[C@@]2(C)C(=CC[C@@H]3[C@@H]2CC[C@]2(C)C(c4cccnc4)=CC[C@@H]32)C1` [Abiraterone Acetate (API), 17-(3-Pyridyl) androsta-5, acetate], the “Total impurities by HPLC” value in data set [1] (Milling none) worked out at 0.23 % AUC; in data set [1] (SPEX shaker mill), 0.17 % AUC. The water solubility result in data set [2] is listed as “poorly water soluble”.
